≈ marks a conversion by molar mass, not a printed value.
Legend:
[1] = tested on: HT-29; test: Cytotoxicity against human HT-29 cells; type: functional
[2] = tested on: A549; test: Cytotoxicity against human A549 cells; type: functional
[3] = tested on: P388; test: Cytotoxicity against mouse P388 cells; type: functional, cell-based
[4] = tested on: P-388 (Mus musculus); test: Cytotoxicity against mouse P-388 cells; settings: read-out: ED50 (the source's name)

Row | Compound | Activity [1] | Activity [2] | Activity [3] | EC50 ([1]; read-out: ED50 (the source's name)) [mg/L] | EC50 [4] [mg/L]
1 | CC(=O)O[C@@H]1C[C@@H](OC(C)=O)[C@](C)(O)C[C@@H]2O[C@H]3[C@@H]4[C@H]2C(C)=CC(=O)[C@@H]4[C@@H](C)CO[C@@]13C | Not toxic | Not toxic | – | – | –
2 | CC1=CC(=O)[C@H]2[C@H]3[C@@H]1[C@@H]1C/C(C)=C\C[C@@H](O)[C@](C)(OC[C@@H]2C)[C@H]3O1 | Not toxic | Not toxic | Not toxic | – | –
3 | CC(=O)O[C@@H]1C[C@@H](O)[C@]2(C)OC[C@H](C)[C@H]3C(=O)C=C(C)[C@@H]4[C@H]3[C@@H]2O[C@H]4C[C@@]1(C)O | Not toxic | Not toxic | – | – | –
4 | CC1=CC(=O)[C@H]2[C@H]3[C@@H]1[C@@H]1C[C@@](C)(O)[C@H](O)C[C@@H](O)[C@](C)(OC[C@@H]2C)[C@H]3O1 [PACHYCLAVULARIAENONE G] | – | – | – | 3.2 (≈ 8.73 µM) | 0.2 (≈ 0.546 µM)

Reference: ChEMBL document CHEMBL1150659, “Pachyclavulariaenones D-G, new diterpenoids from the soft coral Pachyclavularia violacea” (2002)
